Test results published in the kinase profiling compilation of Christmann-Franck et al. (2016).

Legend:
Test in all cases: KINOMEscan competition binding
Settings in all cases: compound 0.1 µM
EIF2AK2 (human) = EIF2AK2 (human) (UniProt P19525)
BLK (human) = BLK (human) (UniProt P51451)
PTK6 (human) = PTK6 (human) (UniProt Q13882)
NEK3 (human) = NEK3 (human) (UniProt P51956)
EPHB6 (human) = EPHB6 (human) (UniProt O15197)
PRPF4B (human) = PRPF4B (human) (UniProt Q13523)
MELK (human) = MELK (human) (UniProt Q14680)
FRK (human) = FRK (human) (UniProt P42685)
FRK (human), sequence (P42685 whole entry, looked up): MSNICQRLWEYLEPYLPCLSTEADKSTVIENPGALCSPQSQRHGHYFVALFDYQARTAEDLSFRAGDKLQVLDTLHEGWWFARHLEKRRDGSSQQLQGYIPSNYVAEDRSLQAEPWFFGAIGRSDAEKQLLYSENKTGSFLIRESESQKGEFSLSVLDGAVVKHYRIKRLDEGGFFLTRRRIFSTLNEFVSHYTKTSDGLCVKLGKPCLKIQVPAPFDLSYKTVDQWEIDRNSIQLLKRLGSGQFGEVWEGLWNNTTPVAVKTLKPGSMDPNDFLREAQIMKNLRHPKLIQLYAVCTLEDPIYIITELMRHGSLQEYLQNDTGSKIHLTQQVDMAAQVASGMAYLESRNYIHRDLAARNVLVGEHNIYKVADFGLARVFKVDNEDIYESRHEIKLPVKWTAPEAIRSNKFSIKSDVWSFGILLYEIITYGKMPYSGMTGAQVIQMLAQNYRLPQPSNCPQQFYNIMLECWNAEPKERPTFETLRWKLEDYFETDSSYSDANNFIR

DYRK1A (human) = DYRK1A (human) (UniProt Q13627)
DCLK2 (human) = DCLK2 (human) (UniProt Q8N568)
DCLK2 (human), sequence (Q8N568 whole entry, looked up): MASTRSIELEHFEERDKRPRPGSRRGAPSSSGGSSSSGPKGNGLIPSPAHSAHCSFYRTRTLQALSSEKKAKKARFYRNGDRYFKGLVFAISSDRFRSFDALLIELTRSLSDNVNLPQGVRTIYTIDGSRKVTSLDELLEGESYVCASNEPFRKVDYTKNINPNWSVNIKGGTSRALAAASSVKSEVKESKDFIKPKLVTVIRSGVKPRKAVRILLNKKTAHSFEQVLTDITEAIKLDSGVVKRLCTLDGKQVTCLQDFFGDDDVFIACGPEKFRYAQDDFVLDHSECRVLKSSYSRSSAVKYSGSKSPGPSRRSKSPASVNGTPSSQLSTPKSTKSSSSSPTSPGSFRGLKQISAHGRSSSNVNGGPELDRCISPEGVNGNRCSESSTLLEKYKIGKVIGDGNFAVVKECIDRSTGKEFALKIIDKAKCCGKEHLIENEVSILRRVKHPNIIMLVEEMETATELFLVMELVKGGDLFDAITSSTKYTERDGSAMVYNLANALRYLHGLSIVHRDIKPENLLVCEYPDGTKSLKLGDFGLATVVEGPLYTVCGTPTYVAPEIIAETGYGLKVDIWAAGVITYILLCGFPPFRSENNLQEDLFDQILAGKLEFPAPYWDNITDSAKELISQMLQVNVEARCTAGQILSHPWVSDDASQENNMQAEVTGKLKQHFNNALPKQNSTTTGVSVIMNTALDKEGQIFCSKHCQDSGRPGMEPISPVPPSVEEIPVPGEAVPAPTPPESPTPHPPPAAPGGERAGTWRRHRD

OXSR1 (human) = OXSR1 (human) (UniProt O95747)
TSSK1B (human) = TSSK1B (human) (UniProt Q9BXA7)
DAPK3 (human) = DAPK3 (human) (UniProt O43293)
PIK3C2G (human) = PIK3C2G (human) (UniProt O75747)
MINK1 (human) = MINK1 (human) (UniProt Q8N4C8)
MINK1 (human), sequence (Q8N4C8 whole entry, looked up): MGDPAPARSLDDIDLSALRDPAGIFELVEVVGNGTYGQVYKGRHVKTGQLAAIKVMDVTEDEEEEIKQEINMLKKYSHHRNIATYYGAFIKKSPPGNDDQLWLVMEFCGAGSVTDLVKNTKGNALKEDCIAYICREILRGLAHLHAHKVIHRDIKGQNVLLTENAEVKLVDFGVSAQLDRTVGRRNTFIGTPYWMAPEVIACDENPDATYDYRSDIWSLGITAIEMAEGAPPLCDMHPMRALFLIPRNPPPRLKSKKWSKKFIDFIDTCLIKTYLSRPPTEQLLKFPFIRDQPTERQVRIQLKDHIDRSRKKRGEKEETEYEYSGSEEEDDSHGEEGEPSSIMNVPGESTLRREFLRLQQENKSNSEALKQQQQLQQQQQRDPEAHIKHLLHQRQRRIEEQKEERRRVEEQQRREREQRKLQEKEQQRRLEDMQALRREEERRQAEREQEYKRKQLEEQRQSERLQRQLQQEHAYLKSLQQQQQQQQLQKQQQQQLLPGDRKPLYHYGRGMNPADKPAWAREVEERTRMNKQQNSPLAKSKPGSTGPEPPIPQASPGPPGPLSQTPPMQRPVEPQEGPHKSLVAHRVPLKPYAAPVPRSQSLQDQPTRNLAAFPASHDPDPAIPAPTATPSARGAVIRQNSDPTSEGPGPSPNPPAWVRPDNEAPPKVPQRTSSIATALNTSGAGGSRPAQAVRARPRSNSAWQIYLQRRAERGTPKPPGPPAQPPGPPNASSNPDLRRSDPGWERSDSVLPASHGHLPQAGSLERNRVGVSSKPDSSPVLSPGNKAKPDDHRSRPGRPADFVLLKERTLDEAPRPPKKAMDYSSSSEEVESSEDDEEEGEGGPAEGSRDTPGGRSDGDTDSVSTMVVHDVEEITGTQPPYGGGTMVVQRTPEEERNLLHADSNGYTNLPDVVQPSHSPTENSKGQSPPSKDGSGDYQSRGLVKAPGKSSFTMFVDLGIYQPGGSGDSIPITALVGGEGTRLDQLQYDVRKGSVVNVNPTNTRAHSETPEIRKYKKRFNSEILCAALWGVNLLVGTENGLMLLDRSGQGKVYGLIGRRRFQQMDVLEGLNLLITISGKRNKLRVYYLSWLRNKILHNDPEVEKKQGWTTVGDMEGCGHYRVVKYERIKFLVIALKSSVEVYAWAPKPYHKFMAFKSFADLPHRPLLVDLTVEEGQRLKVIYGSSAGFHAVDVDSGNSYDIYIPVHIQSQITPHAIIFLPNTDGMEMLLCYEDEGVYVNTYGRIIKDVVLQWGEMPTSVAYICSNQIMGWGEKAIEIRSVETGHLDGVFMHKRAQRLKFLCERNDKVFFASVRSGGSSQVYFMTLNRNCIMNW

SGK2 (human) = SGK2 (human) (UniProt Q9HBY8)
HIPK4 (human) = HIPK4 (human) (UniProt Q8NE63)
MAP3K3 (human) = MAP3K3 (human) (UniProt Q99759)
CAMK2B (human) = CAMK2B (human) (UniProt Q13554)
ERN1 (human) = ERN1 (human) (UniProt O75460)
TNNI3K (human) = TNNI3K (human) (UniProt Q59H18)
EPHA4 (human) = EPHA4 (human) (UniProt P54764)
DCLK1 (human) = DCLK1 (human) (UniProt O15075)
CDC42BPB (human) = CDC42BPB (human) (UniProt Q9Y5S2)
[1] = tested on: ABL1 (human), P00519 [Y253F]
SIK2 (human) = SIK2 (human) (UniProt Q9H0K1)
BMX (human) = BMX (human) (UniProt P51813)
BMX (human), sequence (P51813 whole entry, looked up): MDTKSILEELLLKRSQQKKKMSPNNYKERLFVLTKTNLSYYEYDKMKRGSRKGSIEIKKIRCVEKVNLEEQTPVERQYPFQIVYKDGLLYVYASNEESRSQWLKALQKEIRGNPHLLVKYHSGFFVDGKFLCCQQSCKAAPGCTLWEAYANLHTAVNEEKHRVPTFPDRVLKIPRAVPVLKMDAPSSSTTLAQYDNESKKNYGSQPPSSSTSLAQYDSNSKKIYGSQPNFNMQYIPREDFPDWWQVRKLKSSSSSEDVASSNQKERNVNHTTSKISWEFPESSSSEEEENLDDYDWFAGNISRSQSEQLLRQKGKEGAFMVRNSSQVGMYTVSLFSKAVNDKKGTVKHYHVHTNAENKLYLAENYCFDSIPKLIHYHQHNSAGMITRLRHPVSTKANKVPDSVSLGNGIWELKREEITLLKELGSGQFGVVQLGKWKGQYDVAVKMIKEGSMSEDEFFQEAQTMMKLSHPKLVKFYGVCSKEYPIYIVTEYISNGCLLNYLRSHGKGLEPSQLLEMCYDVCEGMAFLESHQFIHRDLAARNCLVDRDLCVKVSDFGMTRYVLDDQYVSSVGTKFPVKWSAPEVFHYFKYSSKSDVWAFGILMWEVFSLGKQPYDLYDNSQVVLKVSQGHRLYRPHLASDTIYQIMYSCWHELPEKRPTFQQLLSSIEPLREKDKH

LATS2 (human) = LATS2 (human) (UniProt Q9NRM7)
EPHA1 (human) = EPHA1 (human) (UniProt P21709)
EPHA1 (human), sequence (P21709 whole entry, looked up): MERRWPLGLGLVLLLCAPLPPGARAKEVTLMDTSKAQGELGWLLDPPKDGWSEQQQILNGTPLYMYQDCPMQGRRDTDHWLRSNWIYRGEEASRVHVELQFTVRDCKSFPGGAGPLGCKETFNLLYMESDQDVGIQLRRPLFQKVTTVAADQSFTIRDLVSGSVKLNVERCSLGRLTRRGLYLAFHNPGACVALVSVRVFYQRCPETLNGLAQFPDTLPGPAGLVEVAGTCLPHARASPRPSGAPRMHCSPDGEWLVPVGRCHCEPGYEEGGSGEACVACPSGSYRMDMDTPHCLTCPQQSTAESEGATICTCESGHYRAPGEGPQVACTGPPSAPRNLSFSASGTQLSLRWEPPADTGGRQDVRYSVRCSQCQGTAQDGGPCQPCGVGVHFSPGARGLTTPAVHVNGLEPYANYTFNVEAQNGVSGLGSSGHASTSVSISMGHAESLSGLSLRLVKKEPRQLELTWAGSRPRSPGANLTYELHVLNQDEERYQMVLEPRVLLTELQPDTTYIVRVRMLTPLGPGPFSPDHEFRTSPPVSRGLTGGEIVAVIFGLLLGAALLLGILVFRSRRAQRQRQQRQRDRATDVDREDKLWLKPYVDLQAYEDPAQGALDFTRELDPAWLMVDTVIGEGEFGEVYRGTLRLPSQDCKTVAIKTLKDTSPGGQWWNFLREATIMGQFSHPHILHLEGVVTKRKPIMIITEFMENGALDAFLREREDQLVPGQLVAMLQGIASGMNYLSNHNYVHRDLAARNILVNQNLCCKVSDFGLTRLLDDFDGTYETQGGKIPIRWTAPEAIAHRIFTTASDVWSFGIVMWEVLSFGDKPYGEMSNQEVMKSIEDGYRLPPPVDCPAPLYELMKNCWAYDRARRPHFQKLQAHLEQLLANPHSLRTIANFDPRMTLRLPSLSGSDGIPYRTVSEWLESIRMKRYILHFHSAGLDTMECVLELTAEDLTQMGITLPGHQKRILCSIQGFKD

DYRK2 (human) = DYRK2 (human) (UniProt Q92630)
NEK7 (human) = NEK7 (human) (UniProt Q8TDX7)
BMP2K (human) = BMP2K (human) (UniProt Q9NSY1)
MAP3K9 (human) = MAP3K9 (human) (UniProt P80192)
CHEK2 (human) = CHEK2 (human) (UniProt O96017)
PIP5K1C (human) = PIP5K1C (human) (UniProt O60331)
[2] = tested on: RET (human), P07949 [M918T]
SNRK (human) = SNRK (human) (UniProt Q9NRH2)
NUAK1 (human) = NUAK1 (human) (UniProt O60285)
CHUK (human) = CHUK (human) (UniProt O15111)
CHUK (human), sequence (O15111 whole entry, looked up): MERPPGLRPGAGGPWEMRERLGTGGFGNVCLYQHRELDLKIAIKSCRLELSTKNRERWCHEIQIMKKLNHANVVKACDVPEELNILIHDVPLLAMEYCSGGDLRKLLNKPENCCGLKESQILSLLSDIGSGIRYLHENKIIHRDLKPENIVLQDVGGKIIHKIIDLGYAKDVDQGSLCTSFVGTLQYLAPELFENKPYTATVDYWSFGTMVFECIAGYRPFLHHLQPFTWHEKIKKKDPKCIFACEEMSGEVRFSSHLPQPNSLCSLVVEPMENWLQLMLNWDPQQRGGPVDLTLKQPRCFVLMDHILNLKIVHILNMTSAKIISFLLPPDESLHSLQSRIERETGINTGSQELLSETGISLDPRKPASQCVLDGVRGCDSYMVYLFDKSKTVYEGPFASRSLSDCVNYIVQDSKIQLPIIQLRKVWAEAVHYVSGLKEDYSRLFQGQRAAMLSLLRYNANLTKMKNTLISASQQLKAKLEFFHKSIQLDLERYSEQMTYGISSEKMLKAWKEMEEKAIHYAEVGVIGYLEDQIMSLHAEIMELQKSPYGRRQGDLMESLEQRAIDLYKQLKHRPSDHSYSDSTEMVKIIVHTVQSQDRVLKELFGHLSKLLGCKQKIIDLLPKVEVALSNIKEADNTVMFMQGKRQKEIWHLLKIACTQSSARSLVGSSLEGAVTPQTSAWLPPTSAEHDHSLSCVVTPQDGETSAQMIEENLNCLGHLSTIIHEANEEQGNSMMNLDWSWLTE

CLK3 (human) = CLK3 (human) (UniProt P49761)
RPS6KB1 (human) = RPS6KB1 (human) (UniProt P23443)

## CCc1ccc(C(=O)Nc2cc(CN3CCN(C)CC3)cc(C(F)(F)F)c2)cc1C#Cc1cnc2ccnn2c1
EIF2AK2 (human)
  kinase still bound, per cent of control: 83%
BLK (human)
  kinase still bound, per cent of control: 100%
PTK6 (human)
  kinase still bound, per cent of control: 100%
NEK3 (human)
  kinase still bound, per cent of control: 78%
EPHB6 (human)
  kinase still bound, per cent of control: 100%
PRPF4B (human)
  kinase still bound, per cent of control: 75%
MELK (human)
  kinase still bound, per cent of control: 95%
FRK (human)
  kinase still bound, per cent of control: 47%
DYRK1A (human)
  kinase still bound, per cent of control: 100%
DCLK2 (human)
  kinase still bound, per cent of control: 100%
OXSR1 (human)
  kinase still bound, per cent of control: 100%
TSSK1B (human)
  kinase still bound, per cent of control: 95%
DAPK3 (human)
  kinase still bound, per cent of control: 80%
PIK3C2G (human)
  kinase still bound, per cent of control: 100%
MINK1 (human)
  kinase still bound, per cent of control: 100%
SGK2 (human)
  kinase still bound, per cent of control: 94%
HIPK4 (human)
  kinase still bound, per cent of control: 78%
MAP3K3 (human)
  kinase still bound, per cent of control: 100%
CAMK2B (human)
  kinase still bound, per cent of control: 72%
ERN1 (human)
  kinase still bound, per cent of control: 100%
TNNI3K (human)
  kinase still bound, per cent of control: 56%
EPHA4 (human)
  kinase still bound, per cent of control: 97%
DCLK1 (human)
  kinase still bound, per cent of control: 100%
CDC42BPB (human)
  kinase still bound, per cent of control: 78%
[1]
  kinase still bound, per cent of control: 100%
SIK2 (human)
  kinase still bound, per cent of control: 100%
BMX (human)
  kinase still bound, per cent of control: 100%
LATS2 (human)
  kinase still bound, per cent of control: 100%
EPHA1 (human)
  kinase still bound, per cent of control: 86%
DYRK2 (human)
  kinase still bound, per cent of control: 86%
NEK7 (human)
  kinase still bound, per cent of control: 95%
BMP2K (human)
  kinase still bound, per cent of control: 86%
MAP3K9 (human)
  kinase still bound, per cent of control: 100%
CHEK2 (human)
  kinase still bound, per cent of control: 100%
PIP5K1C (human)
  kinase still bound, per cent of control: 96%
[2]
  kinase still bound, per cent of control: 46%
SNRK (human)
  kinase still bound, per cent of control: 75%
NUAK1 (human)
  kinase still bound, per cent of control: 100%
CHUK (human)
  kinase still bound, per cent of control: 100%
CLK3 (human)
  kinase still bound, per cent of control: 91%
RPS6KB1 (human)
  kinase still bound, per cent of control: 100%
